# Where two headings read alike, the source gives them in different places. Residues, ends and D or L forms follow the SMILES beside them. *: point of attachment. Cbz = O=C(OCc1ccccc1)*; CH2F = FC*
# Columns and labels:
# [1] = biological target: T1, β2-adrenoceptor (CaSki cells) (Homo sapiens, UniProt P07550); experiment: Binding studies, β-adrenoceptor radioligand
# T1 construct: endogenous in cells; host or cells: CaSki cells on filters (intact cells, 4 °C)
# [2] = test system: hECEs, ECE16-1, HT3, CaSki, SiHa and Hela cells; conditions: cited from earlier work
# CaSki cells [3] = experiment: DNA solubilization assay (apoptosis); assay type: cell-based, human; conditions: for effect on BzATP-induced apoptosis (DNA solubilization): pretreatment: EGF 0.2 nM, zinterol/terbutaline 1 μM 24 h, forskolin 10 μM 14 h with IBMX, isoproterenol 10 μM, phenylephrine 100 μM; for effect on zinterol (1 μM)-induced inhibition of BzATP-induced apoptosis: cotreatment 24 h: 10 μM propranolol, 100 nM ICI 118,551, 30 μM H-89 dihydrochloride; for BzATP-induced DNA solubilization after pretreatment: 100 μM BzATP 9 h, 24 h 2 nM epinephrine ± 0.2 nm EGF, zVAD-FMK 30 min before, 50 /ZM
# Description: Twenty-four hours before the end of the experiment, cells were labeled with [^3H]thymidine (specific activity, 93 Ci/mmol; 5 μCi/1×10^6 cells) for 16 h. The medium was removed, and cells were washed three times with fresh medium lacking [^3H]thymidine and were incubated in the same medium for an additional 6 h. At the end of incubation, the supernatant was stored, and cells were lysed in 0.5 ml lysis buffer (10 mM Tris-HCl, pH 7.5; plus 1 mM EDTA-0.2% Triton X-100) for 1 h at 4° C. The intact chromatin was separated from the fragmented DNA by 5 min centrifugation at 4° C. in Eppendorf microcentrifuge at 12,000×g. The supernatant (lysate) was stored, while the pellet was resuspended in 0.5 ml of 1% sodium dodecyl sulfate (SDS). The radioactivity contained in the supernatants, lysates; and pellets was counted in a scintillation counter, and DNA fragmentation was calculated as: [% Solubilized DNA]=([cpm supernatant+cpm lysates]/[cpm supernatant+cpm lysate+cpm pellet])×100.
# [4] = test system: α-adrenoceptors (CaSki cells); experiment: Binding studies, α-adrenoceptor radioligands; set-up: species or system human; conditions: not shown
# Description: Binding studies of the adrenoceptors and the EGF receptor used a similar method. Two hundred fifty microliters of binding medium (serum-free DMEM, 0.1% BSA, 10 mM HEPES) containing […] of the radioligand were added to the apical container of the filter, and 500/μl of the same solution to the basolateral container; parallel tubes contained an additional 200-fold excess radioinert ligand. The cells were then incubated at 4° C. for 3 h; at the completion of incubations cells were washed three times with ice-cold HBSS containing 0.1% BSA. Cells were solubilized in 0.2 N NaOH, and the bound ligand was separated on glass fiber filters (Whatman, GF/C, Tonawanda, N.Y.) by vacuum filtration. The associated radioligand was counted either in a β-scintillation counter (for [^3H] associated ligands) or in a γ-counter (for 125I] associated ligands). […] (all at 1 μCi/ml; specific activity, about 90 Ci/mmo]; Amersham), and [^125I]EGF (5 μCi/ml; specific activity, about 100 Ci/mmol; Biomedical Technology, Stoughton, Mass.). […] Human recombinant EGF was from R&D Systems (Minneapolis, Minn.). Specific receptor binding was expressed per milligram DNA, and data were analyzed by Scatchard plot.
# [5] = biological target: T2, full-length human P2X7 receptor (HEK-293-hP2X7-R cells) (Homo sapiens, UniProt Q99572); experiment: Cytosolic calcium in HEK-293-hP2X7-R and wild-type HEK293 cells on filters; assay type: cell-based
# T2 construct: For transfections, the full length human P2X7 receptor; expressed in transfected cells; host or cells: HEK-293, pcDNA-6 vector
# T2 sequence (Q99572 1-595): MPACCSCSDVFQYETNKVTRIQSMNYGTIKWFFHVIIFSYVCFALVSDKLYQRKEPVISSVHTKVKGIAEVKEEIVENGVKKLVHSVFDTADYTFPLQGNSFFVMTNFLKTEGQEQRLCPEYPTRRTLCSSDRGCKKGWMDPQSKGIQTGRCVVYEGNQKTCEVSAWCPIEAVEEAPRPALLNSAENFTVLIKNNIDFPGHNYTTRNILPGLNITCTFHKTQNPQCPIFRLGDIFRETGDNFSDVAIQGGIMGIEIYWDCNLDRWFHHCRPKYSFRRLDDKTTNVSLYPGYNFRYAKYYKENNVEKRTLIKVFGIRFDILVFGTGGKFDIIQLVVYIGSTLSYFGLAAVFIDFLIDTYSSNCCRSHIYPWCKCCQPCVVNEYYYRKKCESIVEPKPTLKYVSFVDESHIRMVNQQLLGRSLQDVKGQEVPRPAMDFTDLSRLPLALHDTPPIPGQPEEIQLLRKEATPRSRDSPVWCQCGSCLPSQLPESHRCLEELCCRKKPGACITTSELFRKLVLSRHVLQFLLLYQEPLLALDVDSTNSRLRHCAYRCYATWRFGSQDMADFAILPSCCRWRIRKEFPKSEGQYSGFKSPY
# [6] = test system: β-arrestin-2-GFP in HEK-293-hP2X7-R cells; experiment: Real-time confocal microscopy of β-arrestin-2-GFP, HEK-293 cells; assay type: cell-based, human
# Description: (§1) CaSki cells transfected with the β-arrestin-2-GFP, or HEK-293 cells co-transfected with the full-length human P2X7-receptor and the β-arrestin-2-GFP were plated on 35-mm glass-bottom culture dishes (MatTek Corporation, Ashland, MA). Dishes contained a centered, 1 cm well formed from a glass coverslip sealed hole in the plastic. Two hours before experiments the medium was replaced with serum-free medium supplemented with 10 mM HEPES. The distribution of the β-arrestin-2-GFP was visualized before and after treatment with the agonist by real-time confocal microscopy. Imaging of the β-arrestin-2-GFP fluorescence in the same cells was performed on a Zeiss laser-scanning confocal microscope (LSM-510) using a heated (37° C.) microscope stage. Barak et al., “A beta-arrestin/green fluorescent protein biosensor for detecting G protein-coupled receptor activation” J Biol Chem 272:27497-27500 (1997).
# (§2) Images were collected sequentially before and after treatment with agonist for 0-30 min at 37° C. using single line excitation (488 nm).
# caspase-9 = conditions: hECEs and CaSki cells; cited from earlier work
# Bcl-2 = conditions: cited from earlier work
# P2X7 receptor = conditions: cited from earlier work
# [7] = biological target: T2, full-length human P2X7 receptor (HEK-293-hP2X7-R cells); experiment: Ethidium bromide influx in HEK-293-hP2X7-R and wild-type HEK293 cells on filters; assay type: cell-based
# CaSki cells [8] = experiment: Number of CaSki cells in culture; assay type: cell-based, human; conditions: serum-free; 0.2 nM EGF, 2 nM epinephrine, or both, 24 h
# Description: Near-confluent cultures of CaSki cells on filters were shifted for 14 hours to serum-free medium supplemented with 1% BSA and were treated in the same medium with 0.2 nM EGF, 2 nM epinephrine, or both for an additional 24 h. At the completion of treatments, cells were harvested off the filters and counted.
# [9] = test system: β-arrestin-2-GFP in CaSki cells; experiment: Real-time confocal microscopy of β-arrestin-2-GFP, CaSki cells; assay type: cell-based, human; conditions: CaSki transfected with β-arrestin-2-GFP; 250 μM ATP
# Description: as §1, §2
# [10] = biological target: P2X7 receptor (HEK-293-hP2X7-R cells) (Homo sapiens, UniProt Q99572)
# [11] = HEK-293-hP2X7-R with β-arrestin-2-GFP, 10 μM angiotensin, 10 μM UTP
# T1 sequence (P07550 whole entry): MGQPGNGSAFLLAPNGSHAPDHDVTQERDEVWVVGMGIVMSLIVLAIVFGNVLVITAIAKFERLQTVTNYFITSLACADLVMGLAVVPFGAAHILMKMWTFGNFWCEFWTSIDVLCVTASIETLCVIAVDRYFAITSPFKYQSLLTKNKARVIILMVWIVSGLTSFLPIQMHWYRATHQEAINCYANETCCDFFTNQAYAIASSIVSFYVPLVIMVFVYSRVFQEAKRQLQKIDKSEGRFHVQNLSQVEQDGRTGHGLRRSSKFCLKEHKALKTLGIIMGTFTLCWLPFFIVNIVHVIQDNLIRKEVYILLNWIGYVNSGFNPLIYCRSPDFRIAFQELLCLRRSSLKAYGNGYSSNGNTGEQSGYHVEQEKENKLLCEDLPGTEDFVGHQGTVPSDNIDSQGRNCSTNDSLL
compound,measurement,setting,value
CC(C)(C)NCC(O)COc1cccc2[nH]c(C#N)c([125I])c12 (stereo not drawn) [[^125I]cyanopindolol],binding activity,[1],about 15 fmol/mg DNA
same,binding activity as receptors per cell,[1],"~10,000 receptors/cell"
C[C@]12CC[C@@H]3c4ccc(O)cc4C[C@@H](CCCCCCCCC[S+]([O-])CCCC(F)(F)C(F)(F)F)[C@H]3[C@@H]1CC[C@@H]2O (stereo partly drawn) [ICI-182780],inhibition of the estrogen antiapoptotic action,[2],lack of inhibition
CC(C)(C)NCC(O)c1cc(O)cc(O)c1 (stereo not drawn) [terbutaline],effect on BzATP-induced apoptosis (DNA solubilization),CaSki cells [3],inhibited
[^3H]tamsulosin,specific binding,[4],no specific binding
O=c1ccn([C@@H]2O[C@H](COP(=O)(O)OP(=O)(O)OP(=O)(O)O)[C@@H](O)[C@H]2O)c(=O)[nH]1 [UTP],effect on cytosolic calcium levels,[5]; not shown,nor did the nucleotide UTP have any appreciable effect
same,effect on the GFP fluorescence,[6]; [11],"Neither angiotensin, nor UTP, had a significant effect"
CC(=O)[C@H]1CC[C@H]2[C@@H]3CCC4=CC(=O)CC[C@]4(C)[C@H]3CC[C@]12C [progesterone],inhibition of the estrogen antiapoptotic action,[2],lack of inhibition
CC(C)NCC(O)COc1cccc2ccccc12 (stereo not drawn) [propranolol],effect on zinterol (1 μM)-induced inhibition of BzATP-induced apoptosis,CaSki cells [3],blocked
angiotensin,effect on the GFP fluorescence,[6]; [11],"Neither angiotensin, nor UTP, had a significant effect"
17β-estradiol [estrogen],P2X7 receptor-induced activation of caspase-9,caspase-9,blocked P2X7 receptor-induced activation of caspase-9
same,Bcl-2 regulation,Bcl-2; CaSki cells,upregulated Bcl-2
same,Bcl-2 regulation,Bcl-2; SiHa and Hela cells,did not find estrogen regulation of Bcl-2
same,P2X7 receptor-induced apoptosis,[2]; SiHa and Hela cells,no effect
same,earliest effects after adding the hormone,[2],1 to 3 h
same,baseline and P2X7 receptor-induced apoptosis,"[2]; hECEs, ECE16-1, HT3, and CaSki cells",blocked baseline and P2X7 receptor-induced apoptosis
same,BzATP-induced calcium influx,P2X7 receptor; cancer CaSki cells,only a mild effect
same,BzATP-induced calcium influx,P2X7 receptor; normal hECEs,did block BzATP-induced calcium influx
COc1cc2nc(N3CCN(C(=O)c4ccco4)CC3)nc(N)c2cc1OC [[^3H]prazosin],specific binding,[4],no specific binding
"CN([C@@H](Cc1ccc(OS(=O)(=O)c2cccc3cnccc23)cc1)C(=O)N1CCN(c2ccccc2)CC1)S(=O)(=O)c1cccc2cnccc12 [KN-62, 1-[N,O-bis(5-isoquinolinesulfonyl)-N-methyl-L-tyrosyl]-4-phenylpiperazine]",effect on ATP/BzATP-induced influx of ethidium bromide,[7],inhibited
same,effect on ATP/BzATP-induced sustained calcium increase,[5],inhibited
"Cc1ccc(OCC(O)C(C)NC(C)C)c2c1CCC2 (stereo not drawn) [ICI 118,551]",effect on zinterol (1 μM)-induced inhibition of BzATP-induced apoptosis,CaSki cells [3],blocked
"Nc1ncnc2c1ncn2[C@@H](C=O)O[C@@H](C=O)COP(=O)(O)OP(=O)(O)OP(=O)(O)O [oATP, oxidized ATP]",effect on ATP/BzATP-induced influx of ethidium bromide,[7],inhibited
same,effect on ATP/BzATP-induced sustained calcium increase,[5],inhibited
CNC[C@H](O)c1ccc(O)c(O)c1 [epinephrine],number of cells in culture,CaSki cells [8],increased the number of cells in culture
same,BzATP-induced DNA solubilization after pretreatment,CaSki cells [3],4.6%
CC(C)(Cc1ccccc1)NCC(O)c1ccc(O)c(NS(C)(=O)=O)c1 (stereo not drawn) [zinterol],effect on TNFα-induced increase in DNA solubilization,CaSki cells [3]; pretreatment 24 h: 1 μM zinterol or 0.2 nM EGF,no effect
same,effect on BzATP-induced apoptosis (DNA solubilization),CaSki cells [3],inhibited
"Nc1ncnc2c1ncn2[C@@H]1O[C@H](COP(=O)(O)OP(=O)(O)OP(=O)(O)O)[C@@H](O)[C@H]1O [ATP, adenosine triphosphate]",time to re-distribution of GFP fluorescence towards cell periphery,[9],≤ 3 min
same,65 KDa and 18 KDa forms in the cytosol,[10]; HEK-293-hP2X7-R cells,biphasic change
same,18 KDa form in the membrane-enriched fraction,"[10]; HEK-293-hP2X7-R, began 10 min after treatment",gradual increase
same,Cai transients,[5],did not induce Cai transients
same,sustained cytosolic calcium increase,[5],induced sustained Ci increase
same,time to redistribution of the GFP fluorescence towards cell periphery,"[6]; HEK-293-hP2X7-R co-transfected with β-arrestin-2-GFP, 250 μM ATP",≤ 5 min
same,duration of redistribution effect,"[6]; HEK-293-hP2X7-R with β-arrestin-2-GFP, 250 μM ATP",at least 10 minutes
same,effect on the GFP fluorescence,"[6]; HEK-293 cells transfected with only β-arrestin-2-GFP, 250 μM ATP",no significant effect
CC/C(=C(\c1ccccc1)c1ccc(OCCN(C)C)cc1)c1ccccc1 [tamoxifen],inhibition of the estrogen antiapoptotic action,[2],lack of inhibition
Cl.Cl.O=S(=O)(NCCNC/C=C/c1ccc(Br)cc1)c1cccc2cnccc12 [H-89 dihydrochloride],effect on zinterol (1 μM)-induced inhibition of BzATP-induced apoptosis,CaSki cells [3],blocked
CNC[C@H](O)c1cccc(O)c1 [phenylephrine],effect on BzATP-induced apoptosis (DNA solubilization),CaSki cells [3],no effect
"COC(=O)C[C@H](NC(=O)[C@H](C)NC(=O)[C@@H](NC(=O)OCc1ccccc1)C(C)C)C(=O)CF [zVAD-FMK, Benzyloxy-vallne-alardne-aspartate-O-methylfluoromethylketone] (Cbz-Val-Ala-Asp(OMe)-CH2F)",BzATP-induced DNA solubilization after pretreatment,CaSki cells [3],about 1.4%
TNFα,DNA solubilization,CaSki cells [3]; 100 μM BzATP for 9 h or 10 μM TNFα for 14 h,significantly increased DNA solubilization
CC(C)NCC(O)c1ccc(O)c(O)c1 (stereo not drawn) [isoproterenol],effect on BzATP-induced apoptosis (DNA solubilization),CaSki cells [3],no effect

# Reference: patent publication US7767789B2, “Truncated proteins as cancer markers” (University Hopitals of Cleveland, priority 2005, dated 2010)
